Measured values: paper PMC12907944, “Targeting RAD51-BRCA2 Interaction to Enhance Synthetic Lethality with Olaparib in Pancreatic Cancer: Development of a Novel Phenyl Furan-Quinoline-Carboxylic Acid Series” (ACS Medicinal Chemistry Letters, 2026)
Converted amounts (≈) assume the structure as drawn.

Experiments:
[1] = test system: homologous recombination in HEK-293 cells; test: m-Clover Lamin A assay (mCl-HR); assay type: cell-based, human
BxPC-3 cells = test: cell viability (CellTiter-Glo), combination with olaparib, Interaction Index; assay type: cell-based, human; conditions: for Combination studies with olaparib: combination effect: BxPC-3 cells
[2] = test system: homologous recombination in BxPC-3 cells; test: HR Quick Assay (HR-QA); assay type: cell-based; conditions: Homo sapiens
[3] = test system: RAD51 foci formation in BxPC-3 cells; test: RAD51 foci immunofluorescence after cisplatin; assay type: cell-based, human
kinetic solubility = assay type: physicochemical; conditions: PBS, aqueous buffer, kinetic from dmso stock
γ-H2AX in BxPC-3 cells = test: γ-H2AX immunofluorescence; assay type: cell-based, human; conditions: BxPC-3, 72 h, 19 + ola combination
[4] = test system: normal pancreatic epithelial H-6037 cells; test: cell viability, combination with olaparib; assay type: cell-based, human; conditions: 19/ola combination, 6-day
BxPC-3 3D spheroids = test: 3D spheroids cell viability (MTT) and volume; assay type: cell-based, human; conditions: BxPC-3 spheroids, 60 μM compound alone

Q: With `COc1ccc2nc(-c3ccc(-c4ccccc4)o3)cc(C(=O)O)c2c1` [Compound 19] as the molecule, how does the mClover-positive cells ([1]; HEK-293, 40 μM) read?
A: The mClover-positive cells was about 4%.

Q: What about the inhibition at 40 µM ([1]; Homo sapiens, HEK293, HEK-293, 40 μM) of the same molecule?
A: Its inhibition at 40 µM is about 74%.

Q: And the “Combination w/ola in BxPC-3 cells” value (BxPC-3 cells; BxPC-3, Table S2)?
A: The value was “Synergism”.

Q: What about the inhibition at 80 µM ([2]; BXPC-3, maximum inhibition) of the same molecule?
A: Its inhibition at 80 µM is 81%.

Q: What about the IC50 ([2]; multiple-dose HR-QA) of the same molecule?
A: The IC50 was 21.7 ± 1.81 µM.

Q: What about the RAD51-labelled nuclei ([3]; BxPC-3, 19 and CPL (50 μM cisplatin)) of the same molecule?
A: The RAD51-labelled nuclei was 22%.

Q: What about the solubility kinetic (kinetic solubility) of the same molecule?
A: Its solubility kinetic is over 250 µM.

Q: And the γ-H2AX-labelled nuclei (γ-H2AX in BxPC-3 cells)?
A: Its γ-H2AX-labelled nuclei is over 40%.

Q: What about the “effect on cell viability of normal cells” value [4] of the same molecule?
A: The value was “no significant effect”.

Q: What about the “impact on spheroid volume” value (BxPC-3 3D spheroids) of the same molecule?
A: Its value is “no significant impact”.

Q: Which cell viability reduction (BxPC-3 cells; BxPC-3, 5 µM compound in combination with olaparib, 144 h) does the source give for `Cc1ccc2nc(-c3ccc(-c4ccccc4)s3)cc(C(=O)O)c2c1` [Compound 20] here?
A: The cell viability reduction was “≈ 40%”.

Q: What about the “Combination studies with olaparib: combination effect” value (shortened to “Combination studies with olaparib”) (BxPC-3 cells; 144 h) of the same molecule?
A: Its value is “additive (a result ranging from 0.8 to 1.2 denotes an additive effect)”.

Q: And the inhibition at 20 µM ([2]; BXPC-3, maximum inhibition)?
A: Its inhibition at 20 µM is 89%.

Q: Which inhibition at 20 µM ([2]; BXPC-3, maximum inhibition) does the source give for `O=C(O)c1cc(-c2ccc(-c3ccccc3)o2)nc2ccc(O)cc12` [Compound 18] here?
A: Its inhibition at 20 µM is at most 60%.

Q: With `Cc1ccc2nc(-c3ccc(-c4ccccc4C(=O)O)o3)cc(C(=O)O)c2c1` [Compound 1] as the molecule, how does the “Combination studies with olaparib” value (BxPC-3 cells; 144 h) read?
A: Its value is “additive (a result ranging from 0.8 to 1.2 denotes an additive effect)”.

Q: What about the inhibition at 100 µM ([2]; BXPC-3, at 100 μM) of the same molecule?
A: The inhibition at 100 µM was 4%.

Q: And the inhibition at 50 µM ([2]; BXPC-3, maximum inhibition, at 50 μM)?
A: Its inhibition at 50 µM is 35%.

Q: And the solubility kinetic (kinetic solubility)?
A: The solubility kinetic was 234 ± 9 µM (≈ 87.4 µg/mL).

Q: Which “Combination studies with olaparib” value (BxPC-3 cells; 144 h) does the source give for `Nc1ccc2nc(-c3ccc(-c4ccccc4)o3)cc(C(=O)O)c2c1` [Compound 17] here?
A: Its value is “additive (a result ranging from 0.8 to 1.2 denotes an additive effect)”.

Q: What about the inhibition at 20 µM ([2]; BXPC-3, maximum inhibition) of the same molecule?
A: The inhibition at 20 µM was 77%.

Q: For `N.N.[Cl][Pt][Cl]` [CPL, cisplatin, reference compound], which RAD51-labelled nuclei ([3]; BxPC-3, CPL alone (50 μM cisplatin)) is on record?
A: Its RAD51-labelled nuclei is 56%.

Q: For `Cc1ccc2nc(-c3ccc(-c4ccccc4F)o3)cc(C(=O)O)c2c1` [Compound 8], which inhibition at 60 µM ([2]; BXPC-3, maximum inhibition, at 60 μM) is on record?
A: Its inhibition at 60 µM is 39%.

Q: With `CCc1ccc2nc(-c3ccc(-c4ccccc4)o3)cc(C(=O)O)c2c1` [Compound 16] as the molecule, how does the cell viability reduction (BxPC-3 cells; BxPC-3, compound alone at 40 µM) read?
A: The cell viability reduction was 40%.

Q: And the “Combination studies with olaparib” value (BxPC-3 cells; 144 h)?
A: The value was “additive (a result ranging from 0.8 to 1.2 denotes an additive effect)”.

Q: What about the inhibition at 80 µM ([2]; BXPC-3, maximum inhibition) of the same molecule?
A: Its inhibition at 80 µM is 76%.

Q: For `Cc1ccc2nc(-c3ccc(-c4ccccc4)o3)cc(C(=O)O)c2c1` [Compound 4], which “Combination studies with olaparib” value (BxPC-3 cells; 144 h) is on record?
A: Its value is “additive (a result ranging from 0.8 to 1.2 denotes an additive effect)”.

Q: And the inhibition at 80 µM ([2]; BXPC-3, maximum inhibition)?
A: The inhibition at 80 µM was 63%.
